Drawing on patent publication US20230115534A1 (ARKUDA THERAPEUTICS, priority 2019, published 2023), this text covers EC50 for 13 compounds.

As a reminder, the pEC50 is −log10 of the EC50, conventionally taken in molar units. Read a high pEC50 as a small EC50.

The test deals with progranulin (PGRN). Briefly: progranulin induction cellular assay (PGRN assay), ELISA-based readout. To be noted: PGRN assay as described: mouse primary microglia, primary cortical neurons and BV-2 cell lines; secreted mouse PGRN in medium by ELISA; cell type for Table B not specified. Here is the method: Cellular Assays: To measure the efficacy of compounds, a progranulin induction cellular assay in mouse primary microglia (pMG), primary cortical neurons, and BV-2 cell lines is used. BV-2 cells are split the day before plating into a 96 well plate format at approximately 80%. Cells should be plated the day before and allowed for 1 hour attachment period and for 16 hour incubation. Levels of progranulin secreted into the cell culture medium or retained in the cell lysate can be quantified using an ELISA-based readout and measurement of secreted mouse PGRN in the medium was assessed by the methodology published by Ghidoni et al. 2012. Standard ELISA kits to measure PGRN are available from vendors such as Adipogen, R&D, and Biovendor.
Table B below presents the results of a PGRN assay as described above.
In general terms: ELISA stands for enzyme-linked immunosorbent assay.

SMILES strings stand for the structures. pEC50: −log10 of the molar value. Structures can show the parent of a compound that is named as a salt.

In turn, `CN[C@H]1C[C@H](NC(=O)N2CCc3ccccc3[C@@H]2c2ccc(F)cc2)C1` [Compound 4043, (S)-1-(4-fluorophenyl)-N-(trans-3-(methylamino)cyclobutyl)-3,4-dihydroisoquinoline-2(1H)-carboxamide hydrochloride] had a negative logarithm of the EC50 (pEC50) of 6.05.

The compound `CN[C@H]1C[C@H](N(C)C(=O)N2CCc3ccccc3[C@@H]2c2ccc(F)cc2)C1` [Compound 4044, (S)-1-(4-fluorophenyl)-N-methyl-N-((trans)-3-(methylamino)cyclobutyl)-3,4-dihydroisoquinoline-2(1H)-carboxamide hydrochloride] gave a pEC50 of 5.99.

Compound `CN[C@H]1C[C@@H](NC(=O)N2CCc3ccccc3[C@@H]2c2ccc(F)cc2)C1` [Compound 4045, (S)-1-(4-fluorophenyl)-N-(cis-3-(methylamino)cyclobutyl)-3,4-dihydroisoquinoline-2(1H)-carboxamide hydrochloride] showed a pEC50 of 6.22. As for `N[C@H]1C[C@@H](COC(=O)N2CCc3ccccc3[C@@H]2c2ccc(F)cc2)C1` [Compound 4046, (Cis-3-aminocyclobutyl)methyl (S)-1-(4-fluorophenyl)-3,4-dihydroisoquinoline-2(1H)-carboxylate], the figure is 6.04; as for `N[C@H]1C[C@H](COC(=O)N2CCc3ccccc3[C@@H]2c2ccc(F)cc2)C1` [Compound 4047, (Trans-3-aminocyclobutyl)methyl (S)-1-(4-fluorophenyl)-3,4-dihydroisoquinoline-2(1H)-carboxylate], 5.79.

Regarding `CC(C)(OC(=O)N1CCc2ccccc2C1c1ccc(F)cc1)C12CC(N)(C1)C2` [Compound 4048, 2-(3-Aminobicyclo[1.1.1]pentan-1-yl)propan-2-yl (S)-1-(4-fluorophenyl)-3,4-dihydroisoquinoline-2(1H)-carboxylate], the negative-log EC50 (pEC50) was 5.96. This pEC50 and that of the compound before are within 0.2 log units of each other.

In turn, `O=C(OC12CC(N3CCOCC3)(C1)C2)N1CCc2ccccc2[C@@H]1c1ccc(F)cc1` [Compound 4049, 3-Morpholinobicyclo[1.1.1]pentan-1-yl (S)-1-(4-fluorophenyl)-3,4-dihydroisoquinoline-2(1H)-carboxylate hydrochloride] gave a pEC50 of under 5.00. The compound `CC(C)(NC(=O)N1CCc2ccccc2C1c1ccc(F)cc1)C12CC(N)(C1)C2` [Compound 4050, (S)—N-(2-(3-aminobicyclo[1.1.1]pentan-1-yl)propan-2-yl)-1-(4-fluorophenyl)-3,4-dihydroisoquinoline-2(1H)-carboxamide hydrochloride] gave a negative-log EC50 (pEC50) of under 5.00.

The compound `CNC1(COC(=O)N2CCc3ccccc3[C@@H]2c2ccc(F)cc2)CC1` [Compound 4051, (1-(Methylamino)cyclopropyl)methyl (S)-1-(4-fluorophenyl)-3,4-dihydroisoquinoline-2(1H)-carboxylate hydrochloride] showed a pEC50 of 6.34.

For `O=C(NC12CC(N3CC(F)(F)C3)(C1)C2)N1CCc2ccccc2[C@@H]1c1ccc(F)cc1` [Compound 4052, (S)—N-(3-(3,3-difluoroazetidin-1-yl)bicyclo[1.1.1]pentan-1-yl)-1-(4-fluorophenyl)-3,4-dihydroisoquinoline-2(1H)-carboxamide], the negative logarithm of the EC50 (pEC50) was under 5.00. As for `C[C@]1(NC(=O)N2CCc3ccccc3[C@@H]2c2ccc(F)cc2)C[C@H](N)C1` [Compound 4053, (S)—N-((trans)-3-amino-1-methylcyclobutyl)-1-(4-fluorophenyl)-3,4-dihydroisoquinoline-2(1H)-carboxamide], the figure is 7.51; as for `C[C@]1(NC(=O)N2CCc3ccccc3[C@@H]2c2ccc(F)cc2)C[C@@H](N)C1` [Compound 4054, (S)—N-((cis)-3-amino-1-methylcyclobutyl)-1-(4-fluorophenyl)-3,4-dihydroisoquinoline-2(1H)-carboxamide], 6.92. As for `CN(C(=O)N1CCc2ccccc2[C@@H]1c1ccc(F)cc1)[C@H]1C[C@H](N)C1` [Compound 4055, (S)—N-((trans)-3-aminocyclobutyl)-1-(4-fluorophenyl)-N-methyl-3,4-dihydroisoquinoline-2(1H)-carboxamide], the figure is 6.80.
